Test results as given in US9764046B2, “Labeling composition for intraocular tissue, labeling method of intraocular tissue, and screening method” (CANON KABUSHIKI KAISHA, priority 2008, dated 2017).

Legend:
[1] = test system: intraocular tissue (retinal tissue incl. photoreceptor cell layer, vitreous body) of Zebrafish 7-day-old embryo; assay: Staining of intraocular tissue of Zebrafish fry by exposure to staining liquid, ocular tissue section observed by confocal microscope; type: in vivo; details: Zebrafish 7 dpf fry, 1 μg/mL, 1 hour exposure, fixed ocular section
[2] = Excitation and fluorescence wavelengths by fluorescence spectrometer FL4500; type: physicochemical; details: in nm (unit assumed)
[3] = aqueous solution: 10 mg/mL DMSO solution diluted to 1/500 with purified water (Examples 1 to 94)

Row | Compound | Staining ability [1] | λem (fluorescence wavelength) [2, 3] | λex (excitation wavelength) [2, 3] | λem (fluorescence wavelength) [2] | λex (excitation wavelength) [2] | Stained site [1]
1 | Cn1c(=O)cc2c3c(c(NC4CCCCC4)ccc31)C(=O)c1ccccc1-2 [Compound 1] | ++ | 619 | 599 |  |  | 
2 | CCCCCC(CC)Nc1ccc2c3c(cc(=O)n2C)-c2ccccc2C(=O)c13 (stereo not drawn) [Compound 2] | +++ | 553 | 486 |  |  | 
3 | Cn1c(=O)cc2c3c(c(NCc4ccccc4)ccc31)C(=O)c1ccccc1-2 [Compound 3] | ++ | 556 | 480 |  |  | 
4 | O=C1C=Cc2cc(S(=O)(=O)O)cc(S(=O)(=O)O)c2/C1=N/Nc1ccc(S(=O)(=O)O)c2ccccc12 [Compound 4] | ++ | 560 | 473 |  |  | 
5 | Cn1/c(=C/C=C/C2=[N+](CCCS(=O)(=O)[O-])CCS2)oc(=O)/c1=C/C=C1\SCCN1CCCS(=O)(=O)[O-].[Na+] [Compound 14] | ++ |  |  | 617 | 588 | 
6 | CCN1/C(=C\C=C\C2=[N+](CC)c3ccccc3C23CCCCC3)C2(CCCCC2)c2ccccc21.[I-] [Compound 15] | +++ | 569 | 496 |  |  | 
7 | CCC(/C=C1\Oc2ccc(-c3ccccc3)cc2N1CC)=C\c1oc2ccc(-c3ccccc3)cc2[n+]1CC.[I-] [Compound 17] | ++ | 564 | 459 |  |  | 1
8 | CCN(CC)CC.O=S(=O)([O-])CCC[n+]1c(/C=C/C=C2\Sc3ccccc3N2CCCS(=O)(=O)O)sc2ccccc21 [Compound 19] | ++ | 576 | 545 |  |  | 1
9 | CCC(/C=C1\Sc2ccccc2N1CC)=C\c1sc2ccccc2[n+]1CC.[I-] [Compound 20] | ++ | 567 | 555 |  |  | 1
10 | CCC(/C=C1\Sc2c(ccc3ccccc23)N1CC)=C\c1sc2c3ccccc3ccc2[n+]1CC.[I-] [Compound 21] | ++ | 377 | 334 |  |  | 
11 | CCN1C=C/C(=C\C=C\c2oc3ccccc3[n+]2CC)c2ccccc21.[I-] [Compound 22] | ++ | 620 | 571 |  |  | 1
12 | CN(C)c1ccc(/C=C/C=C/c2sc3ccccc3[n+]2CC(=O)O)cc1.[Br-] [Compound 24] | ++ | 692 | 609 |  |  | 1
13 | O=C(O)CN1/C(=C/C2=C(Cl)C(=C/c3sc4ccccc4[n+]3CC(=O)O)/CCC2)Sc2ccccc21.[Br-] [Compound 25] | ++ | 671 | 635 |  |  | 1
14 | CCN1C=C/C(=C\C=C\c2cc[n+](CC)c3ccccc23)c2ccccc21.[I-] [Compound 26] | ++ | 715 | 679 |  |  | 2
15 | CCN1/C(=C/C=C/c2sc3ccccc3[n+]2CC)Sc2ccccc21.[I-] [Compound 27] | ++ | 575 | 485 |  |  | 1
16 | CCCCCN1/C(=C/C=C/c2oc3ccccc3[n+]2CCCCC)Oc2ccccc21.[I-] [Compound 29] | ++ | 509 | 474 |  |  | 

Row | Compound | Staining ability [1] | λem (fluorescence wavelength) [2, 3] | λex (excitation wavelength) [2, 3] | λem (fluorescence wavelength) [2] | λex (excitation wavelength) [2] | Stained site [1]
17 | O=C(O)CCN1/C(=C/C2=C(Cl)C(=C/c3sc4ccccc4[n+]3CCC(=O)O)/CCC2)Sc2ccccc21.[I-] [Compound 31] | ++ | 664 | 495 |  |  | 2
18 | CCN1C(=O)/C(=c2\s/c(=C/c3ccc(N(c4ccccc4)c4ccc5c(c4)C(C)(C)c4ccccc4-5)cc3)c(=O)n2CC(=O)O)SC1=S [Compound 32] | ++ | 640 | 558 |  |  | 
19 | CC1(C)c2ccccc2-c2ccc(N(c3ccccc3)c3ccc(/C=C4/SC(=S)N(CC(=O)O)C4=O)cc3)cc21 [Compound 33] | ++ | 628 | 512 |  |  | 
20 | COc1ccc(N2c3ccc(/C=C4\SC(=S)N(CC(=O)O)C4=O)cc3[C@@H]3CCC[C@@H]32)cc1 [Compound 34] | ++ | 648 | 571 |  |  | 
21 | O=C(O)CN1C(=O)/C(=C/c2ccc3c(c2)[C@@H]2CCC[C@@H]2N3c2ccc(C=C(c3ccccc3)c3ccccc3)cc2)SC1=S [Compound 35] | ++ | 655 | 535 |  |  | 
22 | O=C(O)CN1C(=O)/C(=C\c2ccc3c(c2)[C@@H]2CCC[C@@H]2N3c2ccccc2)SC1=S [Compound 37] | +++ | 633 | 531 |  |  | 
23 | O=C(O)CN1C(=O)/C(=C\c2cc(Br)c3c(c2)[C@@H]2CCC[C@@H]2N3c2ccc(Br)cc2)SC1=S [Compound 38] | ++ | 609 | 482 |  |  | 
24 | CCN1S/C(=c2\s/c(=C/c3ccc4c(c3)[C@@H]3CCC[C@@H]3N4Cc3ccccc3)c(=O)n2CC(=O)O)SC1=S [Compound 39] | ++ | 657 | 576 |  |  | 
25 | CCN1C(=S)S/C(=c2/s/c(=C/c3cc(Br)c4c(c3)[C@@H]3CCC[C@@H]3N4c3ccc(Br)cc3)c(=O)n2CC(=O)O)C1=S [Compound 40] | ++ | 671 | 559 |  |  | 
26 | CCN1C(=O)/C(=c2\s/c(=C/c3ccc4c(c3)[C@@H]3CCC[C@@H]3N4c3ccc(OC)cc3)c(=O)n2CC(=O)O)SC1=S [Compound 41] | ++ | 679 | 582 |  |  | 
27 | COc1ccc(N2c3ccc(/C=C4/SC(=S)N(CCC(=O)O)C4=O)cc3C3CCCC32)cc1 (stereo not drawn) [Compound 44] | ++ | 651 | 564 |  |  | 
28 | O=C(O)C1=NN(c2ccccc2)C(=O)/C1=C\c1ccc2c(c1)C1CCCC1N2c1ccc(Cc2ccccc2)cc1 (stereo not drawn) [Compound 45] | ++ | 586 | 481 |  |  | 
29 | O=C(O)CCN1C(=O)/C(=C\c2ccc3c(c2)C2CCCC2N3Cc2ccccc2)SC1=S (stereo not drawn) [Compound 47] | ++ | 611 | 522 |  |  | 
30 | COc1ccc2cc(N3c4ccc(/C=C5\C(=O)N(c6ccc(C(=O)O)cc6)N=C5C)cc4C4CCCC43)ccc2c1 (stereo not drawn) [Compound 49] | ++ | 649 | 569 |  |  | 
31 | CCOC(=O)CN1C(=O)/C(=C\c2cc(Br)c3c(c2)C2CCCC2N3c2ccc(Br)cc2)SC1=S (stereo not drawn) [Compound 50] | ++ | 580 | 482 |  |  | 
